{"source": "paper PMC12281424", "about": "“A Rac-specific competitive inhibitor of guanine nucleotide binding reduces metastasis in triple-negative breast cancer” (Cell Reports Medicine, 2025)", "key": {"MDA-MB-468 Luc cells": {"tested_on": "MDA-MB-468 Luc cells", "assay": "Focus formation (clonogenic) assay", "format": "cell-based", "protocol": "(§1) Figure 5 A41 decreases growth and invasiveness of TNBC cells in vitro (A) Representative images of RAC-GTP levels (red) in MDA-MB-468 Luc cells in the absence (CTL) and presence of EHT1864, NSC23766, or A41 (1 h at 10 μM) (left). Luciferase (Luc, green) was used to detect the cells. RAC-GTP mean fluorescence intensity was quantified inside the cell area (right) (n = 31–37 cells from 3 independent experiments; ∗p < 0.05, ∗∗∗p < 0.001) (scale bars: 10 μm). […] (C) Quantification of colony number of indicated cancer cell lines in the presence of A41 (10 μM) expressed as the percentage of control in the absence of A41. Results shown are representative of N > 3 independent experiments. (D) Immunoblot analysis and corresponding quantification of AKT and P44/42 expression and phosphorylation (pAKT, p44/42) in MDA-MB-468 Luc cells in the absence (−) and presence of NSC23766 or A41 (1 h at 10^−5 M). Results shown are representative of 3 independent experiments. ∗∗p < 0.01 vs. untreated cells, ^###p < 0.001 vs. NSC23766-treated cells. (E) 3D invasion assay of MDA-MB-468 Luc and cancer-associated fibroblasts (CAFs) and corresponding quantification (scale bars: 200 μm). […]\n1000 cells/well from the indicated cancer cell lines were seeded in 6-wells plates and allowed to grow 2 days before treatments. […] The area occupied by the cells was then quantified with ImageJ software."}, "[1]": {"tested_on": "other breast cancer cell lines and other types of cancer cell lines", "assay": "Focus formation (clonogenic) assay", "format": "cell-based", "conditions": "10 μM", "protocol": "as §1\n1000 cells/well from the indicated cancer cell lines were seeded in 6-wells plates and allowed to grow 2 days before treatments. […] The area occupied by the cells was then quantified with ImageJ software. […]"}, "CHO": {"tested_on": "CHO", "assay": "Micronucleus assay (HCA)", "format": "cell-based", "description": "Data S4. Micronucleus assay-A41.\nTest Scored % Cytotox % Cytotox % Micronucleated t-Test Test\nConcentr. Cells Index CBPI NumbersCell Cells p-value Result […]\nMicronucleus (CHO - S9, HCA)"}, "Monoamine Oxidase MAO-A": {"molecular_target": "Monoamine Oxidase MAO-A (Homo sapiens, UniProt P21397)", "assay": "Safety screen", "format": "biochemical", "experimental": "(§2) Blood cell counts, kinase profiler, safety screen, bacterial cytotoxicity, Ames, micronucleus assays were performed by the company Eurofins (France). The kinase profiler was performed by the company Eurofins (Discovery, Panlab and Cerep)."}, "[2]": {"tested_on": "Glutamate, NMDA, Phencyclidine", "assay": "Safety screen", "format": "binding, rat", "experimental": "as §2"}, "[3]": {"tested_on": "Glycine, Strychnine-Sensitive", "assay": "Safety screen", "format": "binding, rat"}, "AAK1(h)": {"molecular_target": "AAK1(h) (Homo sapiens, UniProt Q2M2I8)", "assay": "Kinase Profiler", "format": "biochemical", "experimental": "(§3) The kinase profiler was performed by the company Eurofins (Discovery, Panlab and Cerep)."}, "Arg(m)": {"molecular_target": "Arg(m) (Mus musculus, UniProt Q4JIM5)", "sequence (Q4JIM5 2-1182 limits assumed)": "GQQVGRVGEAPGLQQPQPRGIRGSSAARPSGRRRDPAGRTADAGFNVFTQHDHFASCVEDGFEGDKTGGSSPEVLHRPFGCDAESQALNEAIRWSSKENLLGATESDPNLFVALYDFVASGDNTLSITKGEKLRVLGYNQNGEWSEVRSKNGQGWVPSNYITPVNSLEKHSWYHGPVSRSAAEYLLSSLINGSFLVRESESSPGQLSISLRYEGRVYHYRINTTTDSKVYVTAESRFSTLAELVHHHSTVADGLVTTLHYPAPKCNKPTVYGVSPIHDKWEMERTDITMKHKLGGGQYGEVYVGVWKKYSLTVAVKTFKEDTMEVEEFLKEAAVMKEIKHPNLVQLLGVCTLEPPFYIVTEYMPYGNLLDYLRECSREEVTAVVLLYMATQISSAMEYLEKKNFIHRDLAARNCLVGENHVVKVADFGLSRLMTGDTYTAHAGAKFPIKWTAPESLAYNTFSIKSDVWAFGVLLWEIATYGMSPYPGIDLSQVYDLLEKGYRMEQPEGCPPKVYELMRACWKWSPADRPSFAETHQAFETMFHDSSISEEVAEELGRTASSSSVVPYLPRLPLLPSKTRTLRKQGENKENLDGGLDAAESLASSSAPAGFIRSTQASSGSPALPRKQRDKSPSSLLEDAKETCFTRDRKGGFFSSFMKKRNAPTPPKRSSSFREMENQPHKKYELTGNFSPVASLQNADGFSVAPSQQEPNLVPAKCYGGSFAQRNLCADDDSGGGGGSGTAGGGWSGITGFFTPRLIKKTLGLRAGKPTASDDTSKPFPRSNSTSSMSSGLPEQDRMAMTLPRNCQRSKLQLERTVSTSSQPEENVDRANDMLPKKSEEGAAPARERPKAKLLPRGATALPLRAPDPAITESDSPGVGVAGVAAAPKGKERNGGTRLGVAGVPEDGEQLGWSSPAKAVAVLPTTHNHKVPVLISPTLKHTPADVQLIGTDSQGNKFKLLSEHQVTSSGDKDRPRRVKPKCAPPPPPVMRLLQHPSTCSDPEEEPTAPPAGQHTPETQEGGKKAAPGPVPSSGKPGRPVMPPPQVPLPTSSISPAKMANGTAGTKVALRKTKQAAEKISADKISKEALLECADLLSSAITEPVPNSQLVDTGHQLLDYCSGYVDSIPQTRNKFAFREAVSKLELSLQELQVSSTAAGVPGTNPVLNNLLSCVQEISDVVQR", "assay": "Kinase Profiler", "format": "biochemical", "experimental": "as §2"}, "CDK14/cyclinY(h)": {"molecular_target": "CDK14/cyclinY(h) (Homo sapiens, UniProt O94921)", "assay": "Kinase Profiler", "format": "biochemical", "experimental": "as §2"}, "CK1α(h)": {"molecular_target": "CK1α(h) (Homo sapiens, UniProt P48729)", "sequence (P48729 whole entry)": "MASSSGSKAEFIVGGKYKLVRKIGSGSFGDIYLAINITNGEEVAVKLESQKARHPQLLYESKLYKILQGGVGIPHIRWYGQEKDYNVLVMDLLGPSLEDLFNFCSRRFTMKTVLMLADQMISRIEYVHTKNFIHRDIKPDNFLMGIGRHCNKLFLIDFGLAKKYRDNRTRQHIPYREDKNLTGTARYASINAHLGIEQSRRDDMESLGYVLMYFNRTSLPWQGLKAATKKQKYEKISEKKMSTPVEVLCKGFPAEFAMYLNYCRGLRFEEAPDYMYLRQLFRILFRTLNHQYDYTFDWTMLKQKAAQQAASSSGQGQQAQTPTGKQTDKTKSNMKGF", "assay": "Kinase Profiler", "format": "biochemical", "experimental": "as §2"}, "EGFR(L858R)(h)": {"molecular_target": "EGFR(L858R)(h) (Homo sapiens, UniProt P00533, L858R)", "assay": "Kinase Profiler", "format": "biochemical", "experimental": "as §3"}, "FGFR1(V561M)(h)": {"molecular_target": "FGFR1(V561M)(h) (Homo sapiens, UniProt P11362, V561M)", "assay": "Kinase Profiler", "format": "biochemical", "experimental": "as §3"}, "Hck(h)": {"molecular_target": "Hck(h) (Homo sapiens, UniProt P08631)", "sequence (P08631 whole entry)": "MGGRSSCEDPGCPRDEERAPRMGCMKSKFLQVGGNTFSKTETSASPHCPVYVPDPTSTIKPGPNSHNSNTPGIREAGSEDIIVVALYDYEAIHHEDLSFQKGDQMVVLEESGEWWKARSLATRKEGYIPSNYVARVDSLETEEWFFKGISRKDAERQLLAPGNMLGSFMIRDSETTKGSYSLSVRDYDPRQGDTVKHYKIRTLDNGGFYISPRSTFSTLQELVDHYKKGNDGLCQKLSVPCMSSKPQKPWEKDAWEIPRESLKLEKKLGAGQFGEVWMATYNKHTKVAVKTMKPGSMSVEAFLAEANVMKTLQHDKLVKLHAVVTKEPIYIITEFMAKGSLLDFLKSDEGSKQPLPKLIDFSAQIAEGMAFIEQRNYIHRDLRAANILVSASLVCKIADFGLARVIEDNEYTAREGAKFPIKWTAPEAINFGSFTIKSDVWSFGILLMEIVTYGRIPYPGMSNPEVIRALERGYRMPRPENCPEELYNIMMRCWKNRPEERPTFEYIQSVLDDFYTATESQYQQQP", "assay": "Kinase Profiler", "format": "biochemical", "experimental": "as §3"}, "Lck(h)": {"molecular_target": "Lck(h) (Homo sapiens, UniProt P06239)", "assay": "Kinase Profiler", "format": "biochemical", "experimental": "as §3"}, "MAPKAP-K2(h)": {"molecular_target": "MAPKAP-K2(h) (Homo sapiens, UniProt P49137)", "assay": "Kinase Profiler", "format": "biochemical", "experimental": "as §3"}, "MEKK3(h)": {"molecular_target": "MEKK3(h) (Homo sapiens, UniProt Q99759)", "assay": "Kinase Profiler", "format": "biochemical", "experimental": "as §3"}, "Met(h)": {"molecular_target": "Met(h) (Homo sapiens, UniProt P08581)", "sequence (P08581 25-1390)": "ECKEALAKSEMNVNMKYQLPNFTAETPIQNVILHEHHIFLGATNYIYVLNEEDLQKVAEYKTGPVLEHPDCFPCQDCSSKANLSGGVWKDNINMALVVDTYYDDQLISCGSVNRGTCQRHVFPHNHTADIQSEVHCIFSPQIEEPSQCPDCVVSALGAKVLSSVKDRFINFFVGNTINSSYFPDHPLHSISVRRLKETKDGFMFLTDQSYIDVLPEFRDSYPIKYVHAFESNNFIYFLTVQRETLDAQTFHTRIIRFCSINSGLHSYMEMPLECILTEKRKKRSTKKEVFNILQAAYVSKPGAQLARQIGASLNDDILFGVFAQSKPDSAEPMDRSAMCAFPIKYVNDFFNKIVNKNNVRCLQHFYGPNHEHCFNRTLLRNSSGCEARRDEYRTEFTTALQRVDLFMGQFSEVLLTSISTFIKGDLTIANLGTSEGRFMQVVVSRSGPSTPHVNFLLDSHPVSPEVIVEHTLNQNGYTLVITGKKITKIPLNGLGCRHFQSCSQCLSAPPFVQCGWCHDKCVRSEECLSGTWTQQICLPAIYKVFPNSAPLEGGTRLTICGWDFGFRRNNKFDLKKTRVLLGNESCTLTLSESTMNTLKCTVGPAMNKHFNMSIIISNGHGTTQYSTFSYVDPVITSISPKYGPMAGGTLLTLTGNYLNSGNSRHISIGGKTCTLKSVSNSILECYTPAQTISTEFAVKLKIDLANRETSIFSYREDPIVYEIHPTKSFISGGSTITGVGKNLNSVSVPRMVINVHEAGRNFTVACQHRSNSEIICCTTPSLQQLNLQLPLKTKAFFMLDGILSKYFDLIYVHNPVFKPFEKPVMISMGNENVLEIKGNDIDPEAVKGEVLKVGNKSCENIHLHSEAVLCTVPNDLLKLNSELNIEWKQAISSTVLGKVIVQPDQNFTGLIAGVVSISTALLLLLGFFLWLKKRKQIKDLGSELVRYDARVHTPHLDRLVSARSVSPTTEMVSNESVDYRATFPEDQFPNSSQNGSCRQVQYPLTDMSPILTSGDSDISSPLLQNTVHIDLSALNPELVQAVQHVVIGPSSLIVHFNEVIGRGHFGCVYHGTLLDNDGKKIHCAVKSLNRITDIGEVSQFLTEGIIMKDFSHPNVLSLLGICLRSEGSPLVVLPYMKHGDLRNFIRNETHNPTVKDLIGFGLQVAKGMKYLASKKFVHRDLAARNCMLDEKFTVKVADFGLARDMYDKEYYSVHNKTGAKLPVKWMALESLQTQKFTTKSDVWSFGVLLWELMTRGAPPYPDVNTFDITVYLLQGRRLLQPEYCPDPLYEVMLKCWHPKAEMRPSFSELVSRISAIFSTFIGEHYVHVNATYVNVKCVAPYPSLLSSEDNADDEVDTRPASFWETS", "assay": "Kinase Profiler", "format": "biochemical", "experimental": "as §3"}, "PAR-1Bα(h)": {"molecular_target": "PAR-1Bα(h) (Homo sapiens, UniProt Q7KZI7)", "assay": "Kinase Profiler", "format": "biochemical", "experimental": "as §3"}, "PKAcβ(h)": {"molecular_target": "PKAcβ(h) (Homo sapiens, UniProt P22694)", "assay": "Kinase Profiler", "format": "biochemical", "experimental": "as §2"}, "Plk1(h)": {"molecular_target": "Plk1(h) (Homo sapiens, UniProt P53350)", "assay": "Kinase Profiler", "format": "biochemical", "experimental": "as §3"}, "PRKG2(h)": {"molecular_target": "PRKG2(h) (Homo sapiens, UniProt Q13237)", "assay": "Kinase Profiler", "format": "biochemical", "experimental": "as §2"}, "Ret(V804M)(h)": {"molecular_target": "Ret(V804M)(h) (Homo sapiens, UniProt P07949, V804M)", "sequence (P07949 29-1114 V804M)": "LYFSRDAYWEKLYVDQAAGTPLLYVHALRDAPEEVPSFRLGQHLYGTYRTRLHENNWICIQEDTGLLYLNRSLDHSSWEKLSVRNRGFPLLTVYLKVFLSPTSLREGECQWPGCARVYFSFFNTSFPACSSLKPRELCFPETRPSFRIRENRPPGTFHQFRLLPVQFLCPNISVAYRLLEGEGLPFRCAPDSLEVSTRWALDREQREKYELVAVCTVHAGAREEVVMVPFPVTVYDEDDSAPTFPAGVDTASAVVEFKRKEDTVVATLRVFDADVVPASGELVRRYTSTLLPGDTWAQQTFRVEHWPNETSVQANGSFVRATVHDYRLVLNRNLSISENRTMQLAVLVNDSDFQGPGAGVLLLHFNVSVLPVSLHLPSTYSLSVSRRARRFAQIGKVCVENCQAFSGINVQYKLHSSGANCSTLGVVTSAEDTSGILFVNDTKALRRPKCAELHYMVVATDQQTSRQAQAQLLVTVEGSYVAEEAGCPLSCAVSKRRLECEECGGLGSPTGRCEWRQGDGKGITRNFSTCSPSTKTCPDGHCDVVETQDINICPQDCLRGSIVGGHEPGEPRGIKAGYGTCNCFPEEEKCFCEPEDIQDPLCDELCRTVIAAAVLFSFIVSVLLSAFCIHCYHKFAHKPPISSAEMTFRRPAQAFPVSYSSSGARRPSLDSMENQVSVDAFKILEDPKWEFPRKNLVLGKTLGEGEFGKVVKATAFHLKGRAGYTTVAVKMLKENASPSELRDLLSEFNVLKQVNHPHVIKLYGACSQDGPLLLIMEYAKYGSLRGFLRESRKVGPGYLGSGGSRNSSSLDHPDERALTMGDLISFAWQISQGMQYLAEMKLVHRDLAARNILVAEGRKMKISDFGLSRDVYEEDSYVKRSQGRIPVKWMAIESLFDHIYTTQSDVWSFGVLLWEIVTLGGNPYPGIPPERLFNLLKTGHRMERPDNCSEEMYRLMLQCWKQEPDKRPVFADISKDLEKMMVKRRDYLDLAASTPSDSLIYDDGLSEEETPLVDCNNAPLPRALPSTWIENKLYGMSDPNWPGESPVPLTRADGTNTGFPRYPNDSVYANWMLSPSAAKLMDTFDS", "assay": "Kinase Profiler", "format": "biochemical", "experimental": "as §3"}, "Rsk1(h)": {"molecular_target": "Rsk1(h) (Homo sapiens, UniProt Q15418)", "assay": "Kinase Profiler", "format": "biochemical", "experimental": "as §3"}, "STK32B(h)": {"molecular_target": "STK32B(h) (Homo sapiens, UniProt Q9NY57)", "assay": "Kinase Profiler", "format": "biochemical", "experimental": "as §3"}, "TAK1(h)": {"molecular_target": "TAK1(h) (Homo sapiens, UniProt O43318)", "sequence (O43318 1-303 limits assumed)": "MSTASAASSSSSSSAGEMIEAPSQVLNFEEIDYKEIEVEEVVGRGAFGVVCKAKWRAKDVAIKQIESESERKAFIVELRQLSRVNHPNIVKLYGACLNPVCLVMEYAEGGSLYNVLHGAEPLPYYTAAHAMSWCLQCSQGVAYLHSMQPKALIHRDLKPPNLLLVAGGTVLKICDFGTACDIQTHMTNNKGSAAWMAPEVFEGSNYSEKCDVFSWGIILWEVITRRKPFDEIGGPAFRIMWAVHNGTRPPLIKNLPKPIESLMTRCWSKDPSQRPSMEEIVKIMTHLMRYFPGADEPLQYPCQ", "assay": "Kinase Profiler", "format": "biochemical", "experimental": "as §2"}}}
{"smiles": "COc1ccc(OC)c(NS(=O)(=O)c2ccc(NC(=O)CCSc3ccc(C)cc3)cc2)c1", "note": "[Compound A41]", "values": [{"measurement": "IC50", "setting": "MDA-MB-468 Luc cells; dose-response curve, Figure 5B, read-out: IC50, colony formation", "result": 2100, "unit": "nM"}, {"measurement": "colony formation", "setting": "MDA-MB-468 Luc cells; increasing concentrations", "result": "significantly inhibited colony formation in a dose-dependent manner"}, {"measurement": "colony formation", "setting": "[1]", "result": "Inhibitory effect"}, {"measurement": "% Cytotox Cell Numbers", "setting": "CHO; - S9, 1.3E-04 M", "result": 64.6, "unit": "%"}, {"measurement": "% Cytotox Index CBPI", "setting": "CHO; - S9, 1.3E-04 M", "result": 72.8, "unit": "%"}, {"measurement": "% Micronucleated Cells", "setting": "CHO; - S9, 1.3E-04 M", "result": 13.39, "unit": "%"}, {"measurement": "% Cytotox Cell Numbers", "setting": "CHO; - S9, 1.6E-05 M", "result": 26.4, "unit": "%"}, {"measurement": "% Cytotox Index CBPI", "setting": "CHO; - S9, 1.6E-05 M", "result": -23.9, "unit": "%"}, {"measurement": "% Micronucleated Cells", "setting": "CHO; - S9, 1.6E-05 M", "result": 2.04, "unit": "%"}, {"measurement": "% Cytotox Cell Numbers", "setting": "CHO; - S9, 2.5E-04 M", "result": 73.6, "unit": "%"}, {"measurement": "% Cytotox Index CBPI", "setting": "CHO; - S9, 2.5E-04 M", "result": 73.8, "unit": "%"}, {"measurement": "% Micronucleated Cells", "setting": "CHO; - S9, 2.5E-04 M", "result": 14.40, "unit": "%"}, {"measurement": "% Cytotox Cell Numbers", "setting": "CHO; - S9, 3.1E-05 M", "result": 42.0, "unit": "%"}, {"measurement": "% Cytotox Index CBPI", "setting": "CHO; - S9, 3.1E-05 M", "result": 8.1, "unit": "%"}, {"measurement": "% Micronucleated Cells", "setting": "CHO; - S9, 3.1E-05 M", "result": 3.12, "unit": "%"}, {"measurement": "% Cytotox Cell Numbers", "setting": "CHO; - S9, 6.3E-05 M", "result": 52.5, "unit": "%"}, {"measurement": "% Cytotox Index CBPI", "setting": "CHO; - S9, 6.3E-05 M", "result": 65.8, "unit": "%"}, {"measurement": "% Micronucleated Cells", "setting": "CHO; - S9, 6.3E-05 M", "result": 6.96, "unit": "%"}, {"measurement": "% Cytotox Cell Numbers", "setting": "CHO; - S9, 7.8E-06 M", "result": 14.3, "unit": "%"}, {"measurement": "% Cytotox Index CBPI", "setting": "CHO; - S9, 7.8E-06 M", "result": -21.4, "unit": "%"}, {"measurement": "% Micronucleated Cells", "setting": "CHO; - S9, 7.8E-06 M", "result": 1.13, "unit": "%"}, {"measurement": "% inh.", "setting": "Monoamine Oxidase MAO-A", "result": 10, "unit": "%"}, {"measurement": "% inh.", "setting": "[2]", "result": -6, "unit": "%"}, {"measurement": "% inh.", "setting": "[3]", "result": -1, "unit": "%"}, {"measurement": "Activity(%)", "setting": "AAK1(h)", "result": 105, "unit": "%"}, {"measurement": "Activity(%)", "setting": "Arg(m)", "result": 109, "unit": "%"}, {"measurement": "Activity(%)", "setting": "CDK14/cyclinY(h)", "result": 89, "unit": "%"}, {"measurement": "Activity(%)", "setting": "CK1α(h)", "result": 102, "unit": "%"}, {"measurement": "Activity(%)", "setting": "EGFR(L858R)(h)", "result": 104, "unit": "%"}, {"measurement": "Activity(%)", "setting": "FGFR1(V561M)(h)", "result": 129, "unit": "%"}, {"measurement": "Activity(%)", "setting": "Hck(h)", "result": 111, "unit": "%"}, {"measurement": "Activity(%)", "setting": "Lck(h)", "result": 74, "unit": "%"}, {"measurement": "Activity(%)", "setting": "MAPKAP-K2(h)", "result": 111, "unit": "%"}, {"measurement": "Activity(%)", "setting": "MEKK3(h)", "result": 109, "unit": "%"}, {"measurement": "Activity(%)", "setting": "Met(h)", "result": 88, "unit": "%"}, {"measurement": "Activity(%)", "setting": "PAR-1Bα(h)", "result": 111, "unit": "%"}, {"measurement": "Activity(%)", "setting": "PKAcβ(h)", "result": 116, "unit": "%"}, {"measurement": "Activity(%)", "setting": "Plk1(h)", "result": 106, "unit": "%"}, {"measurement": "Activity(%)", "setting": "PRKG2(h)", "result": 123, "unit": "%"}, {"measurement": "Activity(%)", "setting": "Ret(V804M)(h)", "result": 106, "unit": "%"}, {"measurement": "Activity(%)", "setting": "Rsk1(h)", "result": 122, "unit": "%"}, {"measurement": "Activity(%)", "setting": "STK32B(h)", "result": 105, "unit": "%"}, {"measurement": "Activity(%)", "setting": "TAK1(h)", "result": 107, "unit": "%"}]}
